Columns and labels:
[1] = system: rat model of cystitis; test: Evaluation of the urinary function in a rat model of cystitis (acetic acid infusion, cystometry); type: in vivo; settings: oral administration of 30 mg/kg
From the text: A rat was fixed in the supine position after being given anesthesia through the inhalation of 2% isoflurane (Anesthetic background: Nitrous oxide: Oxygen=7:3). A midline incision was made in its abdomen to expose the bladder. A cannula (made by) processing a polyethylene tube (PE-50: Becton Dickinson)) was inserted through a small incision on top of the bladder and fixed to create a bladder fistula. The other end of the cannula was led through the hypodermal tissue to the back, and the muscular coat and skin were sutured. The cannula, which was led to the back, was protected with a stainless spring in the middle and connected to the cannula swivel. […]
Three days after the acetic acid infusion, the other end of the cannula inserted into the bladder was connected to a T shape stopcock and then the intravesical pressure was recorded continuously using a pressure amplifier while infusing warmed normal saline solution at a rate of 3.0 mL/hr from one side and through a pressure transducer on the other side. The baseline of the intravesical pressure was measured (for approximately 40 minutes) after a measurement for stable duration (for approximately 20 minutes). After that, a vehicle, positive control compound or test compound wore administered, and the value after administration was measured for approximately 120 minutes. […]

[2] = system: partial sciatic nerve ligation model in rats; test: Analgesic effect in a Seltzer model, Evaluation (2): mechanical hyperalgesia, analgesy meter paw pressure test; type: in vivo; settings: rat, oral administration, 10 mg/kg, at 3 hours
From the text: Rats were anaesthetized using isoflurane/O2 inhalation anaesthesia. After induction of anesthesia, the left thigh was shaved. An incision was made in the skin just below the hip bone. The muscle was bluntly dissected to expose the sciatic nerve. One third (⅓) to one half (½) of the sciatic nerve thickness was tightly ligated and the wound was closed. The right thigh is used as a sham-operated control. The right thigh undergoes an identical procedure with the left hind limb, however, the sciatic nerve is not manipulated or ligated.
Mechanical hyperalgesia was eavaluated using an analgesy meter. Two weeks after nerve ligation, the paw pressure test was performed using an analgesy meter (stimulus pressure increased 16 g per second) to obtain paw withdrawal thresholds (PWT). Measurements were made on both sides of the hind paw and to obtain pre-dose PWT. The rats showing the threshold change from 60 to 90 g (in nerve ligated side) and 100 to 175 g (in sham operated side) were used in the experiments. On the day before the experiment, the rats have their hind paws set on the apparatus to familiarize them with the test procedure. […] Post-dose PWT of the right and left hind paws were measured at approximately 1 to 5 hours after drug administration. Percent reversal of mechanical hyperalgesia for each rat was calculated using the following formula. […]

## CC(C)Oc1ccc(Nc2nc(=O)n(CC(C)(C)C(=O)O)c(=O)n2Cc2ccc(Cl)cc2)cc1F [Compound I-0364]
[1]
  improvements in the urinary function in the voided volume per urination: 88%
  improvements in the urinary function in the voiding interval: 74.8%
[2]
  analgesic effect, percent reversal of mechanical hyperalgesia: 56.7 % reversal

Reference: patent US9718790B2, “Triazine derivative and pharmaceutical composition having an analgesic activity comprising the same” (SHIONOGI & CO., LTD., priority 2010, dated 2017)
